# Tested on: MDA-MB-231
# Assay: normalised response (% of control), CellTiter-Glo; higher = more viable cells (100 = DMSO, 0 = benzethonium chloride kill control)
# Details: incubation time: 72 h
# Description: (§1)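 DSRT, 72 h incubation, CellTox Green / CellTiter-Glo readout. Signal is normalised to DMSO and benzethonium chloride controls. Value is the normalised response at the highest dose.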
row,Structure (SMILES),normalised response [%]
1,Cc1cc(C(C)Nc2ccccc2)c2nc(N3CCOCC3)cc(=O)n2c1 (stereo not given) [TGX-221] (10000 nM),72.5
2,FC(F)c1nc2ccccc2n1-c1nc(N2CCOCC2)nc(N2CCOCC2)n1 [ZSTK474] (10000 nM),43.8
3,COc1cc(Nc2ncc(F)c(Nc3ccc4c(n3)NC(=O)C(C)(C)O4)n2)cc(OC)c1OC [Tamatinib] (10000 nM),103
4,C[C@@H]1CCN(C(=O)CC#N)C[C@@H]1N(C)c1ncnc2[nH]ccc12 [Tofacitinib] (5000 nM),114
5,CCCC(CCC)C(=O)O [Valproic acid] (1000000 nM),98.6

# Tested on: BT-549
# Assay: as above
# Details: incubation time: 72 h
# Description: as §1
row,Structure (SMILES),normalised response [%]
1,COC(=O)C[C@](O)(CCCC(C)(C)O)C(=O)O[C@@H]1C(OC)=C[C@]23CCCN2CCc2cc4c(cc2[C@H]13)OCO4 [Omacetaxine] (10000 nM),2.75
2,Cc1cc(C(C)Nc2ccccc2)c2nc(N3CCOCC3)cc(=O)n2c1 (stereo not given) [TGX-221] (10000 nM),78.7
3,FC(F)c1nc2ccccc2n1-c1nc(N2CCOCC2)nc(N2CCOCC2)n1 [ZSTK474] (10000 nM),21.2
4,COc1cc(Nc2ncc(F)c(Nc3ccc4c(n3)NC(=O)C(C)(C)O4)n2)cc(OC)c1OC [Tamatinib] (10000 nM),67.4
5,C[C@@H]1CCN(C(=O)CC#N)C[C@@H]1N(C)c1ncnc2[nH]ccc12 [Tofacitinib] (5000 nM),105
6,CCCC(CCC)C(=O)O [Valproic acid] (1000000 nM),106

# Tested on: CAL-120
# Assay: as above
# Details: incubation time: 72 h
# Description: as §1
row,Structure (SMILES),normalised response [%]
1,COC(=O)C[C@](O)(CCCC(C)(C)O)C(=O)O[C@@H]1C(OC)=C[C@]23CCCN2CCc2cc4c(cc2[C@H]13)OCO4 [Omacetaxine] (10000 nM),21.7
2,Cc1cc(C(C)Nc2ccccc2)c2nc(N3CCOCC3)cc(=O)n2c1 (stereo not given) [TGX-221] (10000 nM),88.5
3,FC(F)c1nc2ccccc2n1-c1nc(N2CCOCC2)nc(N2CCOCC2)n1 [ZSTK474] (10000 nM),34.6
4,COc1cc(Nc2ncc(F)c(Nc3ccc4c(n3)NC(=O)C(C)(C)O4)n2)cc(OC)c1OC [Tamatinib] (10000 nM),94.9
5,C[C@@H]1CCN(C(=O)CC#N)C[C@@H]1N(C)c1ncnc2[nH]ccc12 [Tofacitinib] (5000 nM),99.8
6,CCCC(CCC)C(=O)O [Valproic acid] (1000000 nM),103

# Tested on: Hs578T
# Assay: as above
# Details: incubation time: 72 h
# Description: as §1
row,Structure (SMILES),normalised response [%]
1,COC(=O)C[C@](O)(CCCC(C)(C)O)C(=O)O[C@@H]1C(OC)=C[C@]23CCCN2CCc2cc4c(cc2[C@H]13)OCO4 [Omacetaxine] (10000 nM),1.02
2,Cc1cc(C(C)Nc2ccccc2)c2nc(N3CCOCC3)cc(=O)n2c1 (stereo not given) [TGX-221] (10000 nM),79
3,FC(F)c1nc2ccccc2n1-c1nc(N2CCOCC2)nc(N2CCOCC2)n1 [ZSTK474] (10000 nM),25.9
4,COc1cc(Nc2ncc(F)c(Nc3ccc4c(n3)NC(=O)C(C)(C)O4)n2)cc(OC)c1OC [Tamatinib] (10000 nM),102
5,C[C@@H]1CCN(C(=O)CC#N)C[C@@H]1N(C)c1ncnc2[nH]ccc12 [Tofacitinib] (5000 nM),101
6,CCCC(CCC)C(=O)O [Valproic acid] (1000000 nM),99

# Tested on: CAL-51
# Assay: as above
# Details: incubation time: 72 h
# Description: as §1
row,Structure (SMILES),normalised response [%]
1,COC(=O)C[C@](O)(CCCC(C)(C)O)C(=O)O[C@@H]1C(OC)=C[C@]23CCCN2CCc2cc4c(cc2[C@H]13)OCO4 [Omacetaxine] (10000 nM),6.4
2,Cc1cc(C(C)Nc2ccccc2)c2nc(N3CCOCC3)cc(=O)n2c1 (stereo not given) [TGX-221] (10000 nM),67.6
3,FC(F)c1nc2ccccc2n1-c1nc(N2CCOCC2)nc(N2CCOCC2)n1 [ZSTK474] (10000 nM),16.4
4,COc1cc(Nc2ncc(F)c(Nc3ccc4c(n3)NC(=O)C(C)(C)O4)n2)cc(OC)c1OC [Tamatinib] (10000 nM),74.1
5,C[C@@H]1CCN(C(=O)CC#N)C[C@@H]1N(C)c1ncnc2[nH]ccc12 [Tofacitinib] (5000 nM),76.6
6,CCCC(CCC)C(=O)O [Valproic acid] (1000000 nM),87.6

# Tested on: HCC1143
# Assay: as above
# Details: incubation time: 72 h
# Description: as §1
row,Structure (SMILES),normalised response [%]
1,COC(=O)C[C@](O)(CCCC(C)(C)O)C(=O)O[C@@H]1C(OC)=C[C@]23CCCN2CCc2cc4c(cc2[C@H]13)OCO4 [Omacetaxine] (10000 nM),10.8
2,Cc1cc(C(C)Nc2ccccc2)c2nc(N3CCOCC3)cc(=O)n2c1 (stereo not given) [TGX-221] (10000 nM),86.8
3,FC(F)c1nc2ccccc2n1-c1nc(N2CCOCC2)nc(N2CCOCC2)n1 [ZSTK474] (10000 nM),37.9
4,COc1cc(Nc2ncc(F)c(Nc3ccc4c(n3)NC(=O)C(C)(C)O4)n2)cc(OC)c1OC [Tamatinib] (10000 nM),101
5,C[C@@H]1CCN(C(=O)CC#N)C[C@@H]1N(C)c1ncnc2[nH]ccc12 [Tofacitinib] (5000 nM),102
6,CCCC(CCC)C(=O)O [Valproic acid] (1000000 nM),106

# Tested on: SK-BR-3
# Assay: as above
# Details: incubation time: 72 h
# Description: as §1
row,Structure (SMILES),normalised response [%]
1,COC(=O)C[C@](O)(CCCC(C)(C)O)C(=O)O[C@@H]1C(OC)=C[C@]23CCCN2CCc2cc4c(cc2[C@H]13)OCO4 [Omacetaxine] (10000 nM),1.19
2,Cc1cc(C(C)Nc2ccccc2)c2nc(N3CCOCC3)cc(=O)n2c1 (stereo not given) [TGX-221] (10000 nM),78
3,FC(F)c1nc2ccccc2n1-c1nc(N2CCOCC2)nc(N2CCOCC2)n1 [ZSTK474] (10000 nM),22.4
4,COc1cc(Nc2ncc(F)c(Nc3ccc4c(n3)NC(=O)C(C)(C)O4)n2)cc(OC)c1OC [Tamatinib] (10000 nM),109
5,C[C@@H]1CCN(C(=O)CC#N)C[C@@H]1N(C)c1ncnc2[nH]ccc12 [Tofacitinib] (5000 nM),106
6,CCCC(CCC)C(=O)O [Valproic acid] (1000000 nM),99.1

# Tested on: MDA-MB-453
# Assay: as above
# Details: incubation time: 72 h
# Description: as §1
row,Structure (SMILES),normalised response [%]
1,COC(=O)C[C@](O)(CCCC(C)(C)O)C(=O)O[C@@H]1C(OC)=C[C@]23CCCN2CCc2cc4c(cc2[C@H]13)OCO4 [Omacetaxine] (10000 nM),24.6
2,Cc1cc(C(C)Nc2ccccc2)c2nc(N3CCOCC3)cc(=O)n2c1 (stereo not given) [TGX-221] (10000 nM),76.1
3,FC(F)c1nc2ccccc2n1-c1nc(N2CCOCC2)nc(N2CCOCC2)n1 [ZSTK474] (10000 nM),15.9
4,COc1cc(Nc2ncc(F)c(Nc3ccc4c(n3)NC(=O)C(C)(C)O4)n2)cc(OC)c1OC [Tamatinib] (10000 nM),112
5,C[C@@H]1CCN(C(=O)CC#N)C[C@@H]1N(C)c1ncnc2[nH]ccc12 [Tofacitinib] (5000 nM),105
6,CCCC(CCC)C(=O)O [Valproic acid] (1000000 nM),81.2

# Tested on: BT-474
# Assay: as above
# Details: incubation time: 72 h
# Description: as §1
row,Structure (SMILES),normalised response [%]
1,COC(=O)C[C@](O)(CCCC(C)(C)O)C(=O)O[C@@H]1C(OC)=C[C@]23CCCN2CCc2cc4c(cc2[C@H]13)OCO4 [Omacetaxine] (10000 nM),5.49
2,Cc1cc(C(C)Nc2ccccc2)c2nc(N3CCOCC3)cc(=O)n2c1 (stereo not given) [TGX-221] (10000 nM),70.9
3,FC(F)c1nc2ccccc2n1-c1nc(N2CCOCC2)nc(N2CCOCC2)n1 [ZSTK474] (10000 nM),44.8
4,COc1cc(Nc2ncc(F)c(Nc3ccc4c(n3)NC(=O)C(C)(C)O4)n2)cc(OC)c1OC [Tamatinib] (10000 nM),95.6
5,C[C@@H]1CCN(C(=O)CC#N)C[C@@H]1N(C)c1ncnc2[nH]ccc12 [Tofacitinib] (5000 nM),98.2
6,CCCC(CCC)C(=O)O [Valproic acid] (1000000 nM),100

# Tested on: MDA-MB-436
# Assay: as above
# Details: incubation time: 72 h
# Description: as §1
row,Structure (SMILES),normalised response [%]
1,COC(=O)C[C@](O)(CCCC(C)(C)O)C(=O)O[C@@H]1C(OC)=C[C@]23CCCN2CCc2cc4c(cc2[C@H]13)OCO4 [Omacetaxine] (10000 nM),17.4
2,Cc1cc(C(C)Nc2ccccc2)c2nc(N3CCOCC3)cc(=O)n2c1 (stereo not given) [TGX-221] (10000 nM),70.9
